Results from ChEMBL document CHEMBL1134722, “Selective, orally active MMP inhibitors with an aryl backbone” (Bioorg Med Chem Lett, 2001).

Assays:
[1] = Cmax after oral administration at 20 mpk in rats; assay type: ADME, organism-based; parameters: dose 20 mpk, route oral; settings: rat, in vivo, 20 mg/kg
[2] = Oral bioavailability in rat; assay type: ADME, organism-based; settings: in vivo, read-out: BA
[3] = Half life period after intravenous administration at 20 mpk in rats; assay type: ADME, organism-based; settings: rat, in vivo, 20 mg/kg
[4] = target: T1, Interstitial collagenase (Homo sapiens) (UniProt P03956); assay: Inhibitory activity against human Matrix metalloprotease-1
T1 sequence (whole entry): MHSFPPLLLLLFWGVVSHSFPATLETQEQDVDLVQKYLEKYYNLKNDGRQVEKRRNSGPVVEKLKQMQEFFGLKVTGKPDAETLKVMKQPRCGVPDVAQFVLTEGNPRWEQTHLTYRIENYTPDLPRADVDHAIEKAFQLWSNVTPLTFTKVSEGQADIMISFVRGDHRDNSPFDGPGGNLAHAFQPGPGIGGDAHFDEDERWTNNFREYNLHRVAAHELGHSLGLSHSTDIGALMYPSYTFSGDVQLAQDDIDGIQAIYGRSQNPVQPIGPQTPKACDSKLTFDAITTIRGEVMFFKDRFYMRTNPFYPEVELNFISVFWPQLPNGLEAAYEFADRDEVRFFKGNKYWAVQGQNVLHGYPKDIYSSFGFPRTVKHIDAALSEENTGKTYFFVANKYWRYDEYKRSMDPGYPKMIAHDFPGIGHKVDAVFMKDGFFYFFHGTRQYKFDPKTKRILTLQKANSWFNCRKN

[5] = target: 72 kDa type IV collagenase (Homo sapiens) (UniProt P08253); assay: Inhibitory concentration against Matrix metalloprotease-2
Chain of 72 kDa type IV collagenase (Homo sapiens) (P08253 110-660 limits assumed): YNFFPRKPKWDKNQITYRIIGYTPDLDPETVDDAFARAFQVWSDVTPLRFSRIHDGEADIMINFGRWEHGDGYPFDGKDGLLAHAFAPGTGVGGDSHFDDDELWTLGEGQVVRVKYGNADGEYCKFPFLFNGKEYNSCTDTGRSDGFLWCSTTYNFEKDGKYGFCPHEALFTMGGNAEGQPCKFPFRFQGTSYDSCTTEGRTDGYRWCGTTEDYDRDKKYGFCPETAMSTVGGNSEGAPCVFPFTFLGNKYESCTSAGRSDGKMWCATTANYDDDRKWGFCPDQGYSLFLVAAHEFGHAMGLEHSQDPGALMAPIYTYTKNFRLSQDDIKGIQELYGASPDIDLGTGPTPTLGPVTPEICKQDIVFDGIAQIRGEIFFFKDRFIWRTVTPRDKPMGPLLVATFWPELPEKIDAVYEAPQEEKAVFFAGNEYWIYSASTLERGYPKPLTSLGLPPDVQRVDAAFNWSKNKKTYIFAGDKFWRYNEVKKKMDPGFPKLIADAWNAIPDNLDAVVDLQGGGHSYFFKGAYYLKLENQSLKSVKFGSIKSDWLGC

SMILES | Cmax [1] [ng/mL] | bioavailability [2] [%] | half-life [3] [h] | Activity [4] [µM] | Activity [5] [nM]
CC1(C)SCCN(S(=O)(=O)c2ccc(Oc3ccncc3)cc2)[C@H]1C(=O)NO [PRINOMASTAT] | 2060 | 28 | 1.6 | – | –
COc1ccc(S(=O)(=O)N2CCC(Oc3ccc(Cl)cc3)CC2)c(C(=O)NO)c1OC | – | – | – | > 10 | 0.3
CNC(=O)[C@@H](NC(=O)C(CC(C)C)C(O)C(=O)NO)C(C)(C)C (single isomer, unassigned) | 2400 | 9 | 0.9 | – | –
O=C(NO)c1ccccc1S(=O)(=O)N1CCC(Oc2ccc(OC(F)(F)F)cc2)CC1 | 670 | 39 | – | > 10 | 2.2
COc1ccc(OC)c(S(=O)(=O)N2CCC(Oc3ccc(C(F)(F)F)cc3)CC2)c1C(=O)NO | – | – | – | > 10 | 21
O=C(NO)c1c(S(=O)(=O)N2CCC(Oc3ccc(C(F)(F)F)cc3)CC2)ccc2c1OCCO2 | 3200 | – | – | > 10 | 1.4
COc1ccccc1OC1CCN(S(=O)(=O)c2ccc(OC)c(OC)c2C(=O)NO)CC1 | – | – | – | > 10 | 330
COc1ccc(S(=O)(=O)N2CCC(OCc3ccc4c(c3)OCO4)CC2)c(C(=O)NO)c1OC | 9200 | – | – | > 10 | 1
O=C(NO)c1c(S(=O)(=O)N2CCC(Oc3ccc(C(F)(F)F)cc3)CC2)ccc2c1OCO2 | 3060 | – | – | > 10 | 3
O=C(NO)c1c(Cl)cccc1S(=O)(=O)N1CCC(Oc2ccc(C(F)(F)F)cc2)CC1 | 1310 | – | – | > 10 | 1.9
O=C(NO)c1c(F)cccc1S(=O)(=O)N1CCC(Oc2ccc(C(F)(F)F)cc2)CC1 | – | – | – | > 10 | 3.3
COc1ccc(OC2CCN(S(=O)(=O)c3ccc(OC)c(OC)c3C(=O)NO)CC2)cc1 | – | – | – | > 10 | 1.8
COc1ccc(S(=O)(=O)N2CCC(Oc3ccc(C(F)(F)F)cc3)CC2)c(C(=O)NO)c1OC | 22500 | 32 | 1.9 | > 10 | 2.4
O=C(NO)c1ccccc1S(=O)(=O)N1CCC(Oc2ccc(C(F)(F)F)cc2)CC1 | 1230 | 23 | 0.8 | > 10 | –
O=C(NO)c1c(OC2CCOCC2)cccc1S(=O)(=O)N1CCC(Oc2ccc(C(F)(F)F)cc2)CC1 | – | – | – | > 10 | 1.1
COCCOc1cccc(S(=O)(=O)N2CCC(Oc3ccc(C(F)(F)F)cc3)CC2)c1C(=O)NO | 2670 | – | – | > 10 | 1
O=C(NO)C1(CS(=O)(=O)c2ccc(Oc3ccc(Cl)cc3)cc2)CCOCC1 [CTS-1027] | 1370 | 22 | 1.5 | 0.8 | 0.4
COc1cccc(OC2CCN(S(=O)(=O)c3ccc(OC)c(OC)c3C(=O)NO)CC2)c1 | – | – | – | > 10 | 12
COc1ccc(S(=O)(=O)N2CCC(Oc3ccc(OC(F)(F)F)cc3)CC2)c(C(=O)NO)c1OC | 5160 | 31 | 1.5 | > 10 | 0.8
COc1ccc(S(=O)(=O)N2CCC(Oc3ccccc3)CC2)c(C(=O)NO)c1OC | – | – | – | > 10 | 1.1
O=C(NO)c1c(S(=O)(=O)N2CCC(OCc3ccc4c(c3)OCO4)CC2)ccc2c1OCO2 | – | – | – | > 10 | 1.1
